Measured values taken from patent publication US11390631B1, “Benzodiazepine derivatives as RSV inhibitors” (priority 2015, dated 2022).
Like-named read-outs stand apart in the source and are kept apart here.

Tested on: Human RSV-A (“Long” strain)
Assay: RSV-A assay: inhibition of cytopathic effect in Hep-2 cells, ATPlite readout
Type: cell-based, Human respiratory syncytial virus (HRSV)
Conditions: read-out: Human RSV-A (“Long” strain) EC50
Summary of the method: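 Hep-2 cells (8,000/well) were infected with RSV-A Long at MOI 0.1 alongside duplicate 2-fold compound dilutions. After 5 days, cell viability was read by ATPlite luminescence to give EC50. CC50 came from a parallel plate without virus.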

[1] = human respiratory syncytial virus, HEp-2, 120 h

Structure (SMILES) | EC50 [1] [nM] | EC50 (Hep-2 cells, MOI 0.1, 5-day incubation, ATPlite) [nM]
COc1ccc(-c2nnc(NC3N=C(c4ccccc4)c4ccccc4NC3=O)o2)nc1Cl (centres unmarked) [Example 109] | > 800 | 
CCn1cc(-c2nnc(N[C@H]3N=C(c4ccccc4)c4ccccc4NC3=O)o2)c(N2CCOCC2)n1 [Example 401] | < 400 | 
COCCn1ccc2cccc(-c3nnc(N[C@H]4N=C(c5ccccc5)c5ccccc5NC4=O)o3)c21 [Example 426] | > 800 | 
COc1cc(-c2nnc(NC3N=C(c4ccccc4)c4ccccc4NC3=O)o2)ccc1-n1cnc(C)c1 (centres unmarked) [Example 219] | > 800 | 
COC[C@@H](C)Nc1sc(C(F)(F)F)nc1-c1nnc(N[C@H]2N=C(c3ccccc3)c3ccccc3NC2=O)o1 [Example 451] | 400 to 800 | 
O=C1Nc2ccccc2C(c2cccc(F)c2)=NC1Nc1nnc(-c2ccc(F)cc2)o1 (centres unmarked) [Example 380] | 400 to 800 | 
O=C1Nc2ccccc2C(c2ccccc2)=N[C@@H]1Nc1nnc(-c2nc(C(F)(F)F)sc2N[C@@H]2CCOC2)o1 [Example 474] | < 400 | 
O=C1Nc2ccccc2C(c2ccccc2)=N[C@@H]1Nc1nnc(-c2cnc(N3CC4CCC(C3)O4)nc2)o1 [Example 166] | > 800 | 
O=C1Nc2ccccc2C(c2ccccc2)=N[C@@H]1Nc1nnc(-c2ccc(F)cc2N2CC3CCC(C2)O3)o1 [Example 288] | 400 to 800 | 
C[C@@H]1COCCN1c1cc(C#N)cnc1-c1nnc(N[C@H]2N=C(c3ccccc3)c3ccccc3NC2=O)o1 [Example 301] | < 400 | 
CN1CCC(N2CCC[C@H]2c2nnc(NC3N=C(c4ccccc4)c4ccccc4NC3=O)o2)CC1 (some centres unmarked) [Example 228] | > 800 | 
Cn1cc(-c2nnc(N[C@H]3N=C(c4ccccc4)c4ccccc4NC3=O)o2)c(N2CCOCC2)n1 [Example 181] | < 400 | 
O=C1Nc2c(F)cccc2C(c2ccccc2)=NC1Nc1nnc(-c2ccc(N3CCOCC3)cc2)o1 (centres unmarked) [Example 356] | 400 to 800 | 
CN1CCN(c2cc(C(F)(F)F)cnc2-c2nnc(N[C@H]3N=C(c4ccccc4)c4ccccc4NC3=O)o2)CC1 [Example 327] | 400 to 800 | 
O=C1Nc2ccccc2C(c2ccccc2)=N[C@@H]1Nc1cc(-c2ccccc2)cnn1 [Example 462] | > 800 | 
O=C1Nc2ccccc2C(c2ccccc2)=NC1Nc1nnc(-c2ccc(-n3cncn3)cc2)o1 (centres unmarked) [Example 273] | 400 to 800 | 
O=C1Nc2ccccc2C(c2ccccc2)=N[C@@H]1Nc1nnc(-c2cnc(C(F)(F)F)nc2N2CCOCC2)o1 [Example 162] | < 400 | 
O=C1Nc2ccccc2C(c2ccccc2)=N[C@@H]1Nc1nnc(-c2ccc(=O)[nH]c2N2CCOCC2)o1 [Example 156, (S)-3-((5-(2-morpholino-6-oxo-1,6-dihydropyridin-3-yl)-1,3,4-oxadiazol-2-yl)amino)-5-phenyl-1,3-dihydro-2H-benzo[e][1,4]diazepin-2-one] | > 800 | 
O=C1Nc2ccccc2C(c2ccccc2)=N[C@@H]1Nc1nnc(-c2ncc(N3CCCC3)cc2N2CCOCC2)o1 [Example 314] | < 400 | 
O=C1Nc2ccccc2C(c2ccccc2)=NC1Nc1nnc(-c2ccccc2N2CCS(=O)(=O)CC2)o1 (centres unmarked) [Example 240] | > 800 | 
O=C1Nc2ccccc2C(c2ccccc2)=N[C@@H]1Nc1nnc(-c2ccc(F)nc2N2CCOCC2)o1 [Example 151, (S)-3-((5-(6-fluoro-2-morpholinopyridin-3-yl)-1,3,4-oxadiazol-2-yl)amino)-5-phenyl-1,3-dihydro-2H-benzo[e][1,4]diazepin-2-one] | < 400 | 
O=C1Nc2ccccc2C(c2ccccc2)=N[C@@H]1Nc1nnc(-c2nc3ccccc3nc2N2CCOCC2)o1 [Example 433] | < 400 | 
O=C1Nc2ccccc2C(c2ccccc2)=N[C@@H]1Nc1nnc(-c2ccc(C(F)(F)F)nc2N2C3CCC2COC3)o1 [Example 275] | > 800 | 
O=C1Nc2ccccc2C(c2ccccc2)=N[C@H]1Nc1nnc(-c2ccc(N3CCOCC3)cc2)o1 [Example 124b] | > 800 | 
O=C1Nc2ccccc2C(c2ccccc2)=N[C@@H]1Nc1nnc(-c2ncc3ccccc3c2N2CCOCC2)o1 [Example 316] | > 800 | 

Structure (SMILES) | EC50 [1] [nM] | EC50 (Hep-2 cells, MOI 0.1, 5-day incubation, ATPlite) [nM]
O=C1Nc2ccccc2C(c2ccccc2)=NC1Nc1nnc(CC(F)(F)F)o1 (centres unmarked) [Example 203] | > 800 | 
O=C1Nc2ccccc2C(c2ccccc2)=NC1Nc1nnc(-c2ccncc2)[nH]1 (centres unmarked) [Example 366] | > 800 | 
C[C@H]1CN(c2cc(C#N)cnc2-c2nnc(N[C@H]3N=C(c4ccccc4)c4ccccc4NC3=O)o2)CCO1 [Example 329] | < 400 | 
O=C1Nc2ccccc2C(c2ccccc2)=NC1Nc1nnc(-c2ccccc2-n2cccn2)o1 (centres unmarked) [Example 283] | > 800 | 
O=C1Nc2ccccc2C(c2ccccc2)=NC1Nc1nnc(C2CC(F)(F)C2)o1 (centres unmarked) [Example 214] | > 800 | 
Cn1ncc(-c2nnc(N[C@H]3N=C(c4ccccc4)c4ccccc4NC3=O)o2)c1N1CCOCC1 [Example 177] | > 800 | 
O=C1Nc2ccccc2C(c2ccccc2)=N[C@@H]1Nc1nnc(-c2cnc(-n3cccn3)nc2N2CCOCC2)o1 [Example 172] | > 800 | 
O=C1Nc2ccccc2C(c2ccccc2)=NC1Nc1nnc(-c2ccccc2OC2CCOCC2)o1 (centres unmarked) [Example 239] | > 800 | 
Cc1cc(-c2nnc(N[C@H]3N=C(c4ccccc4)c4ccccc4NC3=O)o2)n(C2CCOCC2)n1 [Example 432] | > 800 | 
Cc1nc(-c2nnc(N[C@H]3N=C(c4ccccc4)c4ccccc4NC3=O)o2)cs1 [Example 343] | > 800 | 
O=C1Nc2ccccc2C(c2ccccc2)=N[C@@H]1Nc1nnc(-c2ncc(C(F)F)cc2N2CCOCC2)o1 [Example 461] | < 400 | 
O=C1Nc2ccccc2C(c2ccccc2)=NC1Nc1nnc([C@@H]2CCCN2C2CCNCC2)o1 (some centres unmarked) [Example 227] | > 800 | 
O=C1Nc2ccccc2C(c2ccccc2)=NC1Nc1nnc(-c2ccccc2N2CCOCC2)[nH]1 (centres unmarked) [Example 367] | > 800 | 
COCCn1ccnc1-c1nnc(N[C@H]2N=C(c3ccccc3)c3ccccc3NC2=O)o1 [Example 306] | > 800 | 
Cc1cc(-c2nnc(NC3N=C(c4ccccc4)c4ccccc4NC3=O)o2)ccc1-n1cncn1 (centres unmarked) [Example 217] | 400 to 800 | 
O=C1Nc2ccccc2C(c2ccccc2)=N[C@@H]1Nc1nnc(-c2ncc(C(F)(F)F)cc2N[C@@H]2CC[C@@H]2O)o1 [Example 418] |  | > 800
O=C1Nc2ccccc2C(c2ccccc2)=NC1Nc1nnc(-c2cn(-c3ccc(F)cn3)nc2N2CCOCC2)o1 (centres unmarked) [Example 448] | < 400 | 
N#Cc1ccc(N2CCOCC2)c(-c2nnc(N[C@H]3N=C(c4ccccc4)c4ccccc4NC3=O)o2)n1 [Example 324] | < 400 | 
O=C1Nc2ccccc2C(c2ccccc2)=N[C@@H]1Nc1nnc(-c2ncc(C(F)(F)F)cc2-c2ccncc2)o1 [Example 282] | > 800 | 
CN(C)CCOc1ccccc1-c1nnc(NC2N=C(c3ccccc3)c3ccccc3NC2=O)o1 (centres unmarked) [Example 234] | > 800 | 
O=C1Nc2ccccc2C(c2ccccc2)=N[C@@H]1Nc1nnc(-c2ncc(C(F)(F)F)cc2NC[C@@H]2CCCO2)o1 [Example 419] | 400 to 800 | 
COCC(C)(C)Nc1cc(C(F)(F)F)cnc1-c1nnc(N[C@H]2N=C(c3ccccc3)c3ccccc3NC2=O)o1 [Example 414] | > 800 | 
CCOC(=O)c1nnc(NC2N=C(c3ccccc3)c3ccccc3NC2=O)o1 (centres unmarked) [Example 78] | > 800 | 
N#Cc1ccc(-c2nnc(N[C@H]3N=C(c4ccccc4)c4ccccc4NC3=O)o2)c(N2CCOCC2)c1 [Example 157] | < 400 | 
O=C1Nc2ccccc2C(c2ccccc2)=NC1Nc1nnc(-c2ccc(-n3cnnc3)cc2)o1 (centres unmarked) [Example 233] | > 800 | 
